This note sets out measurements from US10925876B2, “Methods for using triazolo-pyrazinyl soluble guanylate cyclase activators in fibrotic disorders” (Merck Sharp & Dohme Corp., priority 2016, dated 2021).

The experiment deals with T1, sGC α1/β1 heterodimer (Homo sapiens, UniProt Q02108+Q02153).
T1 construct: expressed in transfected cells
T1 sequence (Q02108 1-690): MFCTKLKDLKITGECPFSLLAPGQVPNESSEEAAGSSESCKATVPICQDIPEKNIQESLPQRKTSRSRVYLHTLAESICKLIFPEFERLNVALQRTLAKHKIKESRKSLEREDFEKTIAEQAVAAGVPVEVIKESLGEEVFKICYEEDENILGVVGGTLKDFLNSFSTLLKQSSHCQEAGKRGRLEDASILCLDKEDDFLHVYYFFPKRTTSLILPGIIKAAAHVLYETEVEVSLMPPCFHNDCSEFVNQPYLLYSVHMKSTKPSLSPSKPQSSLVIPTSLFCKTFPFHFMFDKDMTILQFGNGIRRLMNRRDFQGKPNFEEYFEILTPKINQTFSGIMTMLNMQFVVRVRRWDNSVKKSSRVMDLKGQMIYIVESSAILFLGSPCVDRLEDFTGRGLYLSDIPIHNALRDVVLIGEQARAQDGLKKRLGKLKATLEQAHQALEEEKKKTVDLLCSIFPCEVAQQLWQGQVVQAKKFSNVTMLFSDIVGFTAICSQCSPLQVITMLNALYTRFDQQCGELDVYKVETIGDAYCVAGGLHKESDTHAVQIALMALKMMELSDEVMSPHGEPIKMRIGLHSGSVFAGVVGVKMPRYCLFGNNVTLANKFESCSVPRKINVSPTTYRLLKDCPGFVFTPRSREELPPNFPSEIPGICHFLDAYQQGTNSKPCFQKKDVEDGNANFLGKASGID
T1 sequence (Q02153 1-619): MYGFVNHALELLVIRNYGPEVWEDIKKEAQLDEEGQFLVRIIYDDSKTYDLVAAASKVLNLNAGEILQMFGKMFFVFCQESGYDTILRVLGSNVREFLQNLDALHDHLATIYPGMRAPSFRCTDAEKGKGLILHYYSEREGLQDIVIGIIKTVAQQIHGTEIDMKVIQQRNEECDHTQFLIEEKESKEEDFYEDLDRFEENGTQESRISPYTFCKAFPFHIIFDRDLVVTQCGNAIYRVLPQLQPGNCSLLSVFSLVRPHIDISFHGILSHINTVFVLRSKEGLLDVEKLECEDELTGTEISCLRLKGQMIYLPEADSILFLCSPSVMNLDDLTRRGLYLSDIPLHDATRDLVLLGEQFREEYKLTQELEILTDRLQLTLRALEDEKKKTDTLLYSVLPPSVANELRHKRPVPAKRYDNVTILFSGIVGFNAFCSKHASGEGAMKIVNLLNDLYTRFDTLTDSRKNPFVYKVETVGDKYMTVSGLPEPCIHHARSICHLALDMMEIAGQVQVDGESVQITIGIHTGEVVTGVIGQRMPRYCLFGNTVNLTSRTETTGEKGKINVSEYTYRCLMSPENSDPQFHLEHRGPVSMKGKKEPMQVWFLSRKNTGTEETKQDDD
Put plainly: Cell-Based sGC Functional Assay (CASA Assay), cGMP generation in CHO-K1/sGC cells.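 Further: reference Compound A is a published heme-dependent sGC activator.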 The following applies: maximum cGMP production of Compound A set to 100% activation, read-out: % Act. (percent activation relative to Compound A). The method, boiled down:
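Intracellular cGMP quantified by HTRF competition after 1 h, 37 °C compound exposure, with or without 1 μM DETA-NO, in stable CHO-K1/sGC α1/β1 cells (4×10^5/mL; buffer with 0.5 mM IBMX, 5 mM MgCl2, 10 mM HEPES, 0.05% BSA; 2.5% DMSO). Activation normalized to reference Compound A maximum; 4P fit.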

`O=C1Nc2nc(-c3cn4ncnc4c(CCCC(F)(F)F)n3)nc(O)c2C1(c1ccc(F)cn1)C1CC1` (centres unmarked) [Example 150A, 5-cyclopropyl-5-(5-fluoropyridin-2-yl)-4-hydroxy-2-(8-(4,4,4-trifluorobutyl)-[1,2,4]triazolo[1,5-a]pyrazin-6-yl)-5,7-dihydro-6H-pyrrolo[2,3-d]pyrimidin-6-one]: the Emax stood at 74%. To `CC1(c2ccc(Cl)c(F)c2)C(=O)Nc2nc(-c3cn4ncnc4c(CCC(F)(F)F)n3)nc(O)c21` (centres unmarked) [Example 153B, 5-(4-chloro-3-fluorophenyl)-4-hydroxy-5-methyl-2-(8-(3,3,3-trifluoropropyl)-[1,2,4]triazolo[1,5-a]pyrazin-6-yl)-5H-pyrrolo[2,3-d]pyrimidin-6(7H)-one] belongs 104%; to `CCCCc1nc(-c2nc(O)c3c(n2)NC(=O)C3(C)c2ccc(Cl)cc2)cn2ncnc12` (centres unmarked) [Example 157A, 2-(8-butyl-[1,2,4]triazolo[1,5-a]pyrazin-6-yl)-5-(4-chlorophenyl)-4-hydroxy-5-methyl-5H-pyrrolo[2,3-d]pyrimidin-6(7H)-one], 161%. Take `CCCCc1nc(-c2nc(O)c3c(n2)NC(=O)C3(C)c2ccc(C(F)(F)F)cn2)cn2ncnc12` (centres unmarked) [Example 159B, 2-(8-butyl-[1,2,4]triazolo[1,5-a]pyrazin-6-yl)-4-hydroxy-5-methyl-5-(5-(trifluoromethyl)pyridin-2-yl)-5H-pyrrolo[2,3-d]pyrimidin-6(7H)-one]: the Emax was determined as 73%. For `CCCCc1nc(-c2nc(O)c3c(n2)NC(=O)C3(C)c2ccc(C)cn2)cn2ncnc12` (centres unmarked) [Example 161B, 2-(8-butyl-[1,2,4]triazolo[1,5-a]pyrazin-6-yl)-4-hydroxy-5-methyl-5-(5-methylpyridin-2-yl)-5H-pyrrolo[2,3-d]pyrimidin-6(7H)-one] the value was 95%; for `C[C@@]1(c2ccc(F)cc2)C(=O)Nc2nc(-c3cn4ncnc4c(Cc4ccc(F)cc4)n3)nc(O)c21` [Example 162B, (S)-2-(8-(4-fluorobenzyl)-[1,2,4]triazolo[1,5-a]pyrazin-6-yl)-5-(4-fluorophenyl)-4-hydroxy-5-methyl-5H-pyrrolo[2,3-d]pyrimidin-6(7H)-one], 100%. For `CC(C)Cc1nc(-c2nc(O)c3c(n2)NC(=O)[C@@]3(C)c2ccc(F)cc2)cn2ncnc12` [Example 163A, (S)-5-(4-fluorophenyl)-4-hydroxy-2-(8-isobutyl-[1,2,4]triazolo[1,5-a]pyrazin-6-yl)-5-methyl-5,7-dihydro-6H-pyrrolo[2,3-d]pyrimidin-6-one], the Emax was found to be 109%.

For `CCCc1nc(-c2nc(O)c3c(n2)NC(=O)C3(c2ccc(F)c(F)c2)C2CC2)cn2ncnc12` (centres unmarked) [Example 167A, 5-cyclopropyl-5-(3,4-difluorophenyl)-4-hydroxy-2-(8-propyl-[1,2,4]triazolo[1,5-a]pyrazin-6-yl)-5H-pyrrolo[2,3-d]pyrimidin-6(7H)-one], the Emax is 70%.

For the compound `CCCc1nc(-c2nc(O)c3c(n2)NC(=O)C3(C)c2ccc(Cl)cc2)cn2nc(C)nc12` (centres unmarked) [Example 168A, 5-(4-chlorophenyl)-4-hydroxy-5-methyl-2-(2-methyl-8-propyl-[1,2,4]triazolo[1,5-a]pyrazin-6-yl)-5H-pyrrolo[2,3-d]pyrimidin-6(7H)-one], the Emax amounted to 77%. For `CC1(c2ccc(F)c(F)c2)C(=O)Nc2nc(-c3cn4ncnc4c(CCC(F)(F)C(F)(F)F)n3)nc(O)c21` (centres unmarked) [Example 169B, 5-(3,4-Difluorophenyl)-4-hydroxy-5-methyl-2-(8-(3,3,4,4,4-pentafluorobutyl)-[1,2,4]triazolo[1,5-a]pyrazin-6-yl)-5,7-dihydro-6H-pyrrolo[2,3-d]pyrimidin-6-one] the value was 116%; for `CC1(c2ccccc2F)C(=O)Nc2nc(-c3cn4ncnc4c(CCC(F)(F)C(F)(F)F)n3)nc(O)c21` (centres unmarked) [Example 170A, 5-(2-Fluorophenyl)-4-hydroxy-5-methyl-2-(8-(3,3,4,4,4-pentafluorobutyl)-[1,2,4]triazolo[1,5-a]pyrazin-6-yl)-5,7-dihydro-6H-pyrrolo[2,3-d]pyrimidin-6-one], 125%.
